Patent US12065436B2, “Cardiac sarcomere inhibitors” (Cytokinetics, Inc., priority 2018, dated 2024)

Molecular target: bovine cardiac myofibrils (full-length cardiac myosin ATPase in the native sarcomere) (Bos taurus (Bovine), UniProt Q9BE39)
Experiment: Skinned bovine cardiac myofibril ATPase assay (PK/LDH-coupled)
Type: biochemical
Conditions: Ca2+ activating to 75% of maximal rate; for CDMF75 IC15: concentration giving 15% inhibition; for IC50: read-out: CDMF75 IC50
Summary of the method: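 Inhibition of steady-state ATPase read at 340 nm through a PK/LDH-coupled NADH system (0.5 mM NADH, 1.5 mM PEP). Detergent-skinned bovine cardiac myofibrils, 1 mg/mL, were tested at pH 6.8 in PIPES/MgCl2 with 50 μM ATP and calcium adjusted to give pCa50 or pCa75 activation.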

Chain of bovine cardiac myofibrils (full-length cardiac myosin ATPase in the native sarcomere) (Q9BE39 whole entry): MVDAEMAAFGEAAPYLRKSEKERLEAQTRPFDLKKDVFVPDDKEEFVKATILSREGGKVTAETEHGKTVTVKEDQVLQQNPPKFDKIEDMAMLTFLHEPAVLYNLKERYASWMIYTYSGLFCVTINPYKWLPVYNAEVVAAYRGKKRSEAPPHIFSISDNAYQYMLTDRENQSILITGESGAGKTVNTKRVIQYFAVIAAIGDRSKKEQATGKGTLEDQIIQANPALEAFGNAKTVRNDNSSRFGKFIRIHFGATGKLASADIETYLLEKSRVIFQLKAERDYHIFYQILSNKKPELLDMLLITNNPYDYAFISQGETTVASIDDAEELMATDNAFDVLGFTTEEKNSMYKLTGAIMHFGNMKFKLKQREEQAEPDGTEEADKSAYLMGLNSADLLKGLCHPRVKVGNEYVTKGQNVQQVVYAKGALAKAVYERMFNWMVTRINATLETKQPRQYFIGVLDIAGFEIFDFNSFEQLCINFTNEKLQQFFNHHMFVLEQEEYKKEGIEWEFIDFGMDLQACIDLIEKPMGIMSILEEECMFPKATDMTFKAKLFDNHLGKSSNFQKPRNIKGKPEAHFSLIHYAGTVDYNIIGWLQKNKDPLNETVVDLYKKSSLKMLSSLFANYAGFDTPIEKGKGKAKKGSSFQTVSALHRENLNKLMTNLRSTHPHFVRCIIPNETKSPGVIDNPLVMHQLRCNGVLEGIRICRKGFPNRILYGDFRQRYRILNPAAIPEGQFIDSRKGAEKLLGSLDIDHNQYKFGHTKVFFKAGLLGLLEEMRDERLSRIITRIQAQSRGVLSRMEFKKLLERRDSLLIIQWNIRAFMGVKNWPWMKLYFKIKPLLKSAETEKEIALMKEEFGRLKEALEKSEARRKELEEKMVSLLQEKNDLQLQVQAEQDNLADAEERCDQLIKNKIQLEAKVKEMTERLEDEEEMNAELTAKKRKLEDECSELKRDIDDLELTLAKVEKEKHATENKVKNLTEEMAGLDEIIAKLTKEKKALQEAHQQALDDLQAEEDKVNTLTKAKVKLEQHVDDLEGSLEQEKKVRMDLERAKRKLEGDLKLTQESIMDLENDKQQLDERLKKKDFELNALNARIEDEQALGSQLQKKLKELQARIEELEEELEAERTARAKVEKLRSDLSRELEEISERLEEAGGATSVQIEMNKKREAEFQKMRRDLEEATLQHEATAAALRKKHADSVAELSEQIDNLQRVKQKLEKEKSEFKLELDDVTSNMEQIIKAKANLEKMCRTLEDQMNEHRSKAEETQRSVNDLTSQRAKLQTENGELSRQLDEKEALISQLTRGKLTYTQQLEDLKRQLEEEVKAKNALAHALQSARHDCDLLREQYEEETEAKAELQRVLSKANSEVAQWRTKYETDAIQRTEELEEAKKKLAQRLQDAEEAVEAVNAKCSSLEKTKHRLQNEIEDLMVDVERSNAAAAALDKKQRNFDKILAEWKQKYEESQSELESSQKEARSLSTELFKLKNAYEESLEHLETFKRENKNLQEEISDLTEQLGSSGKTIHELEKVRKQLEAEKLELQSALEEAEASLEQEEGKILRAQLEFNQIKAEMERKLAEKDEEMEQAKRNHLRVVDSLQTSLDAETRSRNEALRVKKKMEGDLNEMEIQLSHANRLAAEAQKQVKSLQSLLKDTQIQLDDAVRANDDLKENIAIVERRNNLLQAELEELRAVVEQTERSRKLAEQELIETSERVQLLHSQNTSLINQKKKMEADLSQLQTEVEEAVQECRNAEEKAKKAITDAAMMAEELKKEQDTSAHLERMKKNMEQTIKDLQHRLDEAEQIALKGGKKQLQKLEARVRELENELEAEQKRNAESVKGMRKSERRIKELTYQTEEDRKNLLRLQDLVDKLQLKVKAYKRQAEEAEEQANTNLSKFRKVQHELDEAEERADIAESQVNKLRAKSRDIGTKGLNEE
Chain of bovine cardiac myofibrils (full-length cardiac myosin ATPase in the native sarcomere) (P85100 whole entry partner): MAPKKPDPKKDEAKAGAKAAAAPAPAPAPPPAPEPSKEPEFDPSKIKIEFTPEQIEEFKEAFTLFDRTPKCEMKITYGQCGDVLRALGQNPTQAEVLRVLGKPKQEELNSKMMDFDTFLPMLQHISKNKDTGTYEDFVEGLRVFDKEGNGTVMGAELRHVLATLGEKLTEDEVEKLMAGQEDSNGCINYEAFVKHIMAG
Chain of bovine cardiac myofibrils (full-length cardiac myosin ATPase in the native sarcomere) (Q3SZE5 whole entry partner): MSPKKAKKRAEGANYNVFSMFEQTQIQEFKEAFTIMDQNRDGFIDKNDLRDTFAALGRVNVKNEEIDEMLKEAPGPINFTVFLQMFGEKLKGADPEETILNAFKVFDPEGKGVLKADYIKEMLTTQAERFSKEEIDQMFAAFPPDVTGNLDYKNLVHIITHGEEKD

CDMF75 IC15 [µM]	IC50 [µM]	Structure (SMILES)
0.8	3.4	O=C(N[C@@H]1CCc2cc(-c3noc(C4CCC4)n3)ccc21)c1nnn(Cc2ccccc2)n1 [Compound 503, (R)-2-benzyl-N-(5-(5-cyclobutyl-1,2,4-oxadiazol-3-yl)-2,3-dihydro-1H-inden-1-yl)-2H-tetrazole-5-carboxamide]
4.4	16.6	CCOC(=O)C(C)c1nc(-c2ccc3c(c2)CC[C@H]3NC(=O)c2nnn(C)n2)no1 (stereo partly drawn) [Compound 504, ethyl 2-(3-((R)-1-(2-methyl-2H-tetrazole-5-carboxamido)-2,3-dihydro-1H-inden-5-yl)-1,2,4-oxadiazol-5-yl)propanoate]
6.5	29.2	O=C(N[C@@H]1CCc2cc(-c3noc(C4CCC4)n3)ccc21)c1nn[nH]n1 [Compound 505, (R)-N-(5-(5-cyclobutyl-1,2,4-oxadiazol-3-yl)-2,3-dihydro-1H-inden-1-yl)-2H-tetrazole-5-carboxamide]
4.5	20	CCc1nc(-c2ccc3c(c2)CC[C@H]3NC(=O)c2cnn(CC3COC3)c2)no1 [Compound 506, (R)-N-(5-(5-ethyl-1,2,4-oxadiazol-3-yl)-2,3-dihydro-1H-inden-1-yl)-1-(oxetan-3-ylmethyl)-1H-pyrazole-4-carboxamide]
32.6	39.2	CCc1nc(-c2ccc3c(c2)CC[C@H]3NC(=O)c2cnn(CC3(C)COC3)c2)no1 [Compound 507, (R)-N-(5-(5-ethyl-1,2,4-oxadiazol-3-yl)-2,3-dihydro-1H-inden-1-yl)-1-((3-methyloxetan-3-yl)methyl)-1H-pyrazole-4-carboxamide]
2.6	11.3	CCc1nc(-c2ccc3c(c2)CC[C@H]3NC(=O)c2cnn(CC3(F)COC3)c2)no1 [Compound 508, (R)-N-(5-(5-ethyl-1,2,4-oxadiazol-3-yl)-2,3-dihydro-1H-inden-1-yl)-1-((3-fluorooxetan-3-yl)methyl)-1H-pyrazole-4-carboxamide]
3.2	12.8	COCCn1cc(C(=O)N[C@@H]2CCc3cc(-c4noc(C)n4)ccc32)cn1 [Compound 509, (R)-1-(2-methoxyethyl)-N-(5-(5-methyl-1,2,4-oxadiazol-3-yl)-2,3-dihydro-1H-inden-1-yl)-1H-pyrazole-4-carboxamide]
1.9	7.9	COCCn1cc(C(=O)N[C@@H]2CCc3cc(-c4noc(C5CC5)n4)ccc32)cn1 [Compound 510, (R)-N-(5-(5-cyclopropyl-1,2,4-oxadiazol-3-yl)-2,3-dihydro-1H-inden-1-yl)-1-(2-methoxyethyl)-1H-pyrazole-4-carboxamide]
3.0	14	COCCn1cc(C(=O)N[C@@H]2CCc3cc(-c4noc(C(C)C)n4)ccc32)cn1 [Compound 511, (R)-N-(5-(5-isopropyl-1,2,4-oxadiazol-3-yl)-2,3-dihydro-1H-inden-1-yl)-1-(2-methoxyethyl)-1H-pyrazole-4-carboxamide]
4.5	18.2	COCCn1cc(C(=O)N[C@@H]2CCc3cc(-c4noc(COC)n4)ccc32)cn1 [Compound 512, (R)-1-(2-methoxyethyl)-N-(5-(5-(methoxymethyl)-1,2,4-oxadiazol-3-yl)-2,3-dihydro-1H-inden-1-yl)-1H-pyrazole-4-carboxamide]
2.2	10.9	COCCn1cc(C(=O)N[C@@H]2CCc3cc(-c4noc(C5CCC5)n4)ccc32)cn1 [Compound 513, (R)-N-(5-(5-cyclobutyl-1,2,4-oxadiazol-3-yl)-2,3-dihydro-1H-inden-1-yl)-1-(2-methoxyethyl)-1H-pyrazole-4-carboxamide]
2.7	11	[2H]C([2H])([2H])c1nc(-c2ccc3c(c2)CC[C@H]3NC(=O)c2cnn(CCOC)c2)no1 [Compound 514, (R)-1-(2-methoxyethyl)-N-(5-(5-(methyl-d3)-1,2,4-oxadiazol-3-yl)-2,3-dihydro-1H-inden-1-yl)-1H-pyrazole-4-carboxamide]
4.3	19.5	CCc1nc(-c2ccc3c(c2)CCCC3NC(=O)c2cnn(C)c2)no1 (centres unmarked) [Compound 515, N-(6-(5-ethyl-1,2,4-oxadiazol-3-yl)-1,2,3,4-tetrahydronaphthalen-1-yl)-1-methyl-1H-pyrazole-4-carboxamide]
39.2	39.2	CCc1nc(-c2ccc3c(c2)CCC[C@@H]3NC(=O)c2cnn(C)c2)no1 [Compound 516, (S)-N-(6-(5-ethyl-1,2,4-oxadiazol-3-yl)-1,2,3,4-tetrahydronaphthalen-1-yl)-1-methyl-1H-pyrazole-4-carboxamide]
2.2	9.7	CCc1nc(-c2ccc3c(c2)CCC[C@H]3NC(=O)c2cnn(C)c2)no1 [Compound 517, (R)—N-(6-(5-ethyl-1,2,4-oxadiazol-3-yl)-1,2,3,4-tetrahydronaphthalen-1-yl)-1-methyl-1H-pyrazole-4-carboxamide]
27.8	39.2	CC(CO)c1nc(-c2ccc3c(c2)CC[C@H]3NC(=O)c2nnn(C)n2)no1 (stereo partly drawn) [Compound 518, N-((1R)-5-(5-(1-hydroxypropan-2-yl)-1,2,4-oxadiazol-3-yl)-2,3-dihydro-1H-inden-1-yl)-2-methyl-2H-tetrazole-5-carboxamide]
1.9	8.7	[2H]C([2H])([2H])c1nc(-c2ccc3c(c2)CC[C@H]3NC(=O)c2cnn(CCO)c2)no1 [Compound 519, (R)-1-(2-hydroxyethyl)-N-(5-(5-(methyl-d3)-1,2,4-oxadiazol-3-yl)-2,3-dihydro-1H-inden-1-yl)-1H-pyrazole-4-carboxamide]
1.8	8.1	Cc1nc(-c2ccc3c(c2)CC[C@H]3NC(=O)c2cnn(CCO)c2)no1 [Compound 520, (R)-1-(2-hydroxyethyl)-N-(5-(5-methyl-1,2,4-oxadiazol-3-yl)-2,3-dihydro-1H-inden-1-yl)-1H-pyrazole-4-carboxamide]
1.2	5	O=C(N[C@@H]1CCc2cc(-c3noc(C4CC4)n3)ccc21)c1cnn(CCO)c1 [Compound 521, (R)-N-(5-(5-cyclopropyl-1,2,4-oxadiazol-3-yl)-2,3-dihydro-1H-inden-1-yl)-1-(2-hydroxyethyl)-1H-pyrazole-4-carboxamide]
2.0	9.1	CC(C)c1nc(-c2ccc3c(c2)CC[C@H]3NC(=O)c2cnn(CCO)c2)no1 [Compound 522, (R)-1-(2-hydroxyethyl)-N-(5-(5-isopropyl-1,2,4-oxadiazol-3-yl)-2,3-dihydro-1H-inden-1-yl)-1H-pyrazole-4-carboxamide]
2.9	13.3	COCc1nc(-c2ccc3c(c2)CC[C@H]3NC(=O)c2cnn(CCO)c2)no1 [Compound 523, (R)-1-(2-hydroxyethyl)-N-(5-(5-(methoxymethyl)-1,2,4-oxadiazol-3-yl)-2,3-dihydro-1H-inden-1-yl)-1H-pyrazole-4-carboxamide]
1.7	7.3	O=C(N[C@@H]1CCc2cc(-c3noc(C4CCC4)n3)ccc21)c1cnn(CCO)c1 [Compound 524, (R)-N-(5-(5-cyclobutyl-1,2,4-oxadiazol-3-yl)-2,3-dihydro-1H-inden-1-yl)-1-(2-hydroxyethyl)-1H-pyrazole-4-carboxamide]
